One experiment deals with T1, aurora kinase B (Homo sapiens, UniProt Q96GD4).
T1 construct: purchased Invitrogen PV3174
In words: Aurora kinase B inhibition in vitro (Invitrogen aurora kinase screening kit PV3174). In kind it is biochemical.

In experiment [1] the test system is K562 human chronicity marrow leukemic cells. In words: Tumor cell inhibition ratio, CCK-8 kit, K562. Conditions: K562, read-out: Antiproliferative effect (inhibition ratio) K562.
Excerpt: (§1) The inhibitory activities of the compounds on tumor cells in vitro
The test system of experiment [2] is A549 human lung cancer cells. In words: Tumor cell inhibition ratio, CCK-8 kit, A549. The note with it: A549, read-out: Antiproliferative effect (inhibition ratio) A549. On the technique in general: Tetrazolium dyes change colour on reduction, which living cells bring about.
Excerpt: as §1
Experiment [3] relates to PC-3 human carcinoma of prostate. The experiment is described as follows: Tumor cell inhibition ratio, CCK-8 kit, PC-3. Conditions: read-out: Antiproliferative effect (inhibition ratio) PC-3.
Excerpt: as §1
Experiment [4] concerns Hut78 T-Lymphocytic Leukemia cells. The experiment is described as follows: Tumor cell inhibition ratio, CCK-8 kit, Hut78. Conditions: Homo sapiens, HuT78, read-out: Antiproliferative effect (inhibition ratio) Hut-78.
Excerpt: as §1
Experiment [5] has as its system Hep3B2.1-7 human hepatoma carcinoma cells. In words: Tumor cell inhibition ratio, CCK-8 kit, Hep3B. Conditions: read-out: Antiproliferative effect (inhibition ratio) Hep3B.
Excerpt: as §1
The subject of experiment [6] is PANC-1 human pancreatic cancer cells. In words: Tumor cell inhibition ratio, CCK-8 kit, PANC-1. Conditions: PANC-1, read-out: Antiproliferative effect (inhibition ratio) PANC-1.
Excerpt: as §1
The subject of experiment [7] is Colo320 human rectal cancer cells. In words: Tumor cell inhibition ratio, CCK-8 kit, Colo320. Conditions: COLO 320, read-out: Antiproliferative effect (inhibition ratio) Colo320.
Excerpt: as §1
The test system of experiment [8] is Jurkat E6-1 human T-cell lymphoma. The experiment is described as follows: Tumor cell inhibition ratio, CCK-8 kit, Jurkat E6-1. Conditions: Jurkat E6.1, read-out: Antiproliferative effect (inhibition ratio) E6-1.
Excerpt: as §1
The test system of experiment [9] is MDA-MB-435s human breast carcinoma cells. In words: Tumor cell inhibition ratio, CCK-8 kit, MDA-MB-435s. The note with it: read-out: Antiproliferative effect (inhibition ratio) 435s.
Excerpt: as §1
In a further experiment the target is EGFR tyrosine kinase (Homo sapiens, UniProt P00533). In words: EGFR tyrosine kinase inhibition in vitro (Invitrogen EGFR inhibitor screening kit PV3193).
Sequence of EGFR tyrosine kinase (P00533 25-1210): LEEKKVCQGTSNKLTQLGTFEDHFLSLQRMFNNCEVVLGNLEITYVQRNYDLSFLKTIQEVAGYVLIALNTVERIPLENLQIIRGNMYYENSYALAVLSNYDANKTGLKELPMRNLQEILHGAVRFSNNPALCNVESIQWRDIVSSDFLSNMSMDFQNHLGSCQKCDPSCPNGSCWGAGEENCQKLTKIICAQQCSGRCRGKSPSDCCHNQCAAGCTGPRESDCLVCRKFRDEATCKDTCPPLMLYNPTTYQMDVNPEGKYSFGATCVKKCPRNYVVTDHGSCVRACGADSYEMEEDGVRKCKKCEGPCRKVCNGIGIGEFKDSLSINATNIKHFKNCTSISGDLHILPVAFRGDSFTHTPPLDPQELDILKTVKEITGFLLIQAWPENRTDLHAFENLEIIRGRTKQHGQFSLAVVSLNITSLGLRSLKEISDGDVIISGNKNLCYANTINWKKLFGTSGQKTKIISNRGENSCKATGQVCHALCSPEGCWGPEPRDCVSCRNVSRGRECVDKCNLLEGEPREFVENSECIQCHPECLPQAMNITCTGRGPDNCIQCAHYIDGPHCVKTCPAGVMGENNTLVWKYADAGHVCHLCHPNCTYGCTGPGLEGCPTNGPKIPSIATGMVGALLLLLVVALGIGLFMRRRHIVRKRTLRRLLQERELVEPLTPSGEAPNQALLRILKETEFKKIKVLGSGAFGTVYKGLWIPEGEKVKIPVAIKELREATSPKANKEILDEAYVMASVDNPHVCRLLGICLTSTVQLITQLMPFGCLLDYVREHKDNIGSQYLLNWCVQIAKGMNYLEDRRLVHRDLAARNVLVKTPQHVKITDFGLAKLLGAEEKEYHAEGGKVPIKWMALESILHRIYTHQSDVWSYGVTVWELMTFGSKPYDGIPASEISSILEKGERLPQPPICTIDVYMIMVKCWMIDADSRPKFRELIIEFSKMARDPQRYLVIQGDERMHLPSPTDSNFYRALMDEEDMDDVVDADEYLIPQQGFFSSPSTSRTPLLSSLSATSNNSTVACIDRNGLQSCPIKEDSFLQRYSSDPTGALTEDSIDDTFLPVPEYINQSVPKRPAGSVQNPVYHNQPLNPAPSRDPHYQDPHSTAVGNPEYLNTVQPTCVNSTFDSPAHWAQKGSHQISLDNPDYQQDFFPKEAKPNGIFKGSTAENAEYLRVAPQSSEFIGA

T1 sequence (Q96GD4 whole entry): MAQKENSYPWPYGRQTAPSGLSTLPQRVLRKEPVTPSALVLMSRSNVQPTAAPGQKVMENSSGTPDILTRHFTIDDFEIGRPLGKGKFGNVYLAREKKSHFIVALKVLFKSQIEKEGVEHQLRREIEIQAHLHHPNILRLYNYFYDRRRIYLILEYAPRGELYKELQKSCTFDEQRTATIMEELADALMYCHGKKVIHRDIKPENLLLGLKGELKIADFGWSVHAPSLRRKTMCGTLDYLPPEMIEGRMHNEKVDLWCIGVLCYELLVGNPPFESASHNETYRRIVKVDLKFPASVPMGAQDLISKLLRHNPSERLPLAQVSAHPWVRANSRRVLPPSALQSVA
Excerpt for EGFR tyrosine kinase: The inhibitory activities of EGFR tyrosine kinase in vitro
Erlotinib hydrochloride was used as a positive control drug.

On to `COCCOc1cc2c(cc1OCCOC)C1=Nc3cccc(C(F)(F)F)c3CN1C=N2` [Compound V-9, 9-trifluoromethyl-2,3-bis(2-methoxyethoxy)-8H-quinazolino[4,3-b]quinazoline], for which the results for the “The inhibition ratio of the compound on Aurora B(%)” value at aurora kinase B (40 μM) and at aurora kinase B (200 μM) were 17.6% and 60.5%, respectively. In addition, the inhibition at 10 µM came out at 34.6% in experiment [1]; 33.7% in experiment [2]; 16.4% in experiment [3]; 19.2% in [4]; 40.1% in experiment [5]; 11.7% in [6]. Also, the inhibition at 10 µM in experiment [7] is 46.3%; in [8], 20.4%; in [9], 54.9%. Besides, the inhibition at 100 µM stood at 79.9% in [1]; 87.5% in experiment [2]; 78% in experiment [3]; 70.5% in [4]; 82.8% in experiment [5]; 55.6% in [6]. For the same compound, the inhibition at 100 µM in experiment [7] turned out to be 73.3%; in experiment [8] it was 65.4%; in experiment [9], 80.7%. Further, the “The inhibition ratio of the compound on EGFR(%)” value on EGFR tyrosine kinase (40 μM) turned out to be 13.0%; on EGFR tyrosine kinase (200 μM) it was 60.3%.

In the case of `COCCOc1cc2c(cc1OCCOC)C1=Nc3cc(O)ccc3CN1C=N2` [Compound V-18, 11-hydroxy-2,3-bis(2-methoxyethoxy)-8H-quinazolino[4,3-b]quinazoline], the “The inhibition ratio of the compound on Aurora B(%)” value at aurora kinase B (40 μM) was 23.2%; at aurora kinase B (200 μM), 76.9%. Further, the inhibition at 10 µM in experiment [1] came to 10.4%; in experiment [2], 37.8%; in [3], 37%; in experiment [4], 19.7%; in experiment [5], 40.1%; in experiment [6] it was 30%. In addition, the inhibition at 10 µM in [7] turned out to be 38.1%; in experiment [8], 44.1%; in experiment [9], 36.6%. In addition, the inhibition at 100 µM in experiment [1] worked out at 59%; in experiment [2], 78.6%; in experiment [3], 76.2%; in [4], 65.2%; in experiment [5], 77.5%; in [6], 84.4%. The inhibition at 100 µM in experiment [7] was 75.1%; in experiment [8], 84%; in experiment [9], 72.3%. Further, the “The inhibition ratio of the compound on EGFR(%)” value at EGFR tyrosine kinase (40 μM) is 33.2%; at EGFR tyrosine kinase (200 μM), 78.8%.

Consider `COCCOc1cc2c(cc1OCCOC)C1=Nc3cccc(C#N)c3CN1C=N2` [Compound V-7, 9-cyano-2,3-bis(2-methoxyethoxy)-8H-quinazolino[4,3-b]quinazoline], for which the “The inhibition ratio of the compound on Aurora B(%)” value on aurora kinase B (40 μM) is reported as 23.2%; at aurora kinase B (200 μM), 91.7%. Also, the inhibition at 10 µM in [1] amounted to 24.3%; in [2] it was 27.7%; in [3], 15.9%; in experiment [4], 32.1%; in experiment [5], 40.4%; in experiment [6], 40.7%. In addition, the results for the inhibition at 10 µM in experiment [7], in [8] and in [9] were 42.1%, 34.6% and 38%, respectively. For the same compound, the inhibition at 100 µM in [1] came out at 61.7%; in experiment [2], 83.6%; in experiment [3], 90.3%; in experiment [4], 62.4%; in experiment [5], 89.5%; in [6], 86.6%. Also, the inhibition at 100 µM in experiment [7] amounted to 81.4%; in experiment [8], 75.4%; in experiment [9] it was 81.4%. Also, the “The inhibition ratio of the compound on EGFR(%)” value at EGFR tyrosine kinase (40 μM) is listed as 36.2%; on EGFR tyrosine kinase (200 μM), 80.5%.

For `C#Cc1cccc2c1CN1C=Nc3cc(OC)c(OC)cc3C1=N2` [Compound V-31, 9-ethynyl-2,3-dimethoxy-8H-quinazolino[4,3-b]quinazoline], the “The inhibition ratio of the compound on Aurora B(%)” value turned out to be 10.6% at aurora kinase B (40 μM) and 66.5% on aurora kinase B (200 μM). Besides, the inhibition at 10 µM worked out at 37.5% in experiment [1]; 28.8% in [2]; 29.4% in experiment [3]; 41.1% in [4]; 31.9% in experiment [5]; 46.5% in [6]. Moreover, the inhibition at 10 µM was determined as 30.8% in experiment [7], 21.8% in experiment [8] and 50.6% in experiment [9]. The inhibition at 100 µM in [1] turned out to be 85%; in [2] it was 32.8%; in experiment [3], 81.7%; in [4], 72.2%; in experiment [5] it was 62.2%; in experiment [6], 96.4%. The inhibition at 100 µM in experiment [7] amounted to 92.8%; in [8] it was 84.2%; in experiment [9], 85.1%. Besides, the “The inhibition ratio of the compound on EGFR(%)” value on EGFR tyrosine kinase (40 μM) came to 30.6%; at EGFR tyrosine kinase (200 μM), 76.5%.

For the compound `COCCOc1cc2c(cc1OCCOC)C1=Nc3cc(C#N)ccc3CN1C=N2` [Compound V-17, 11-cyano-2,3-bis(2-methoxyethoxy)-8H-quinazolino[4,3-b]quinazoline], the results for the “The inhibition ratio of the compound on Aurora B(%)” value on aurora kinase B (40 μM) and at aurora kinase B (200 μM) were 26.4% and 84.3%, respectively. In addition, the inhibition at 10 µM stood at 19.1% in experiment [1]; 49.9% in [2]; 28.1% in experiment [3]; 35.9% in experiment [4]; 58.4% in experiment [5]; 19.6% in experiment [6]. In addition, the results for the inhibition at 10 µM in experiment [7], in [8] and in experiment [9] were 9.66%, 33.7% and 37.5%, respectively. Moreover, the inhibition at 100 µM was 25.2% in experiment [1]; 87.1% in experiment [2]; 91.7% in [3]; 45.3% in experiment [4]; 85.2% in experiment [5]; 56.8% in experiment [6]. The inhibition at 100 µM in [7] was determined as 26.1%; in experiment [8], 79.6%; in experiment [9], 95.5%. The “The inhibition ratio of the compound on EGFR(%)” value was 25.4% on EGFR tyrosine kinase (40 μM) and 70.6% at EGFR tyrosine kinase (200 μM).

In the case of `COCCOc1cc2c(cc1OCCOC)C1=Nc3cc(F)ccc3CN1C=N2` [Compound V-16, 11-fluoro-2,3-bis(2-methoxyethoxy)-8H-quinazolino[4,3-b]quinazoline], the “The inhibition ratio of the compound on Aurora B(%)” value on aurora kinase B (40 μM) is on record as 21.5%; at aurora kinase B (200 μM) it was 78.1%. For the same compound, the inhibition at 10 µM is 53.6% in [1]; 50.7% in [2]; 53.5% in experiment [3]; 44.3% in [4]; 30.3% in experiment [5]; 22.4% in experiment [6]. The inhibition at 10 µM in experiment [7] came to 52.7%; in experiment [8], 56.6%; in [9], 48.9%. Also, the inhibition at 100 µM in experiment [1] worked out at 93.8%; in [2], 70.2%; in [3], 98.9%; in experiment [4] it was 99.6%; in experiment [5], 74.6%; in experiment [6], 99.9%. For the same compound, the inhibition at 100 µM in experiment [7] worked out at 99.4%; in experiment [8] it was 97.3%; in [9] it was 66.2%. The “The inhibition ratio of the compound on EGFR(%)” value at EGFR tyrosine kinase (40 μM) amounted to 21.7%; on EGFR tyrosine kinase (200 μM), 80.1%.

Consider `COCCOc1cc2c(cc1OCCOC)C1=Nc3cccc([N+](=O)[O-])c3CN1C=N2` [Compound V-5, 9-nitro-2,3-bis(2-methoxyethoxy)-8H-quinazolino[4,3-b]quinazoline], for which the “The inhibition ratio of the compound on Aurora B(%)” value on aurora kinase B (40 μM) was found to be 35.1%; at aurora kinase B (200 μM), 74.6%. The inhibition at 10 µM in experiment [1] turned out to be 23.6%; in experiment [2], 59.8%; in experiment [3], 32.5%; in experiment [4], 43.8%; in experiment [5], 22.3%; in experiment [6] it was 17.1%. Besides, the inhibition at 10 µM in experiment [7] came to 51.7%; in experiment [8] it was 34.8%; in experiment [9], 48.9%. In addition, the inhibition at 100 µM in experiment [1] worked out at 78.3%; in experiment [2], 92.5%; in experiment [3], 63.6%; in experiment [4] it was 63.5%; in experiment [5], 54.4%; in experiment [6], 80.3%. In addition, the inhibition at 100 µM in experiment [7] came out at 84.9%; in experiment [8], 78.9%; in experiment [9] it was 87.2%. The “The inhibition ratio of the compound on EGFR(%)” value on EGFR tyrosine kinase (40 μM) came out at 25.2%; on EGFR tyrosine kinase (200 μM), 74.6%.

The record behind these values is patent publication US20110288086A1, “POLYCYCLIC QUINAZOLINES, PREPARATION THEREOF, AND USE THEREOF” (priority 2010, published 2011).
